Laboratory results as given in publication PMC8402619 (Viruses, 2021).
Where two headings read alike, the source gives them in different places.

Experiments:
BCRP [1] = molecular target: T1, BCRP (Homo sapiens, UniProt Q9UNQ0); test: Bidirectional transport across MDCKII and MDCKII-BCRP cell monolayers; type: in vitro ADME; design: expressed in transfected cells; host or cells: MDCKII; details: for efflux ratio at 3 h, 2 µM: human
T1 sequence (Q9UNQ0 1-655): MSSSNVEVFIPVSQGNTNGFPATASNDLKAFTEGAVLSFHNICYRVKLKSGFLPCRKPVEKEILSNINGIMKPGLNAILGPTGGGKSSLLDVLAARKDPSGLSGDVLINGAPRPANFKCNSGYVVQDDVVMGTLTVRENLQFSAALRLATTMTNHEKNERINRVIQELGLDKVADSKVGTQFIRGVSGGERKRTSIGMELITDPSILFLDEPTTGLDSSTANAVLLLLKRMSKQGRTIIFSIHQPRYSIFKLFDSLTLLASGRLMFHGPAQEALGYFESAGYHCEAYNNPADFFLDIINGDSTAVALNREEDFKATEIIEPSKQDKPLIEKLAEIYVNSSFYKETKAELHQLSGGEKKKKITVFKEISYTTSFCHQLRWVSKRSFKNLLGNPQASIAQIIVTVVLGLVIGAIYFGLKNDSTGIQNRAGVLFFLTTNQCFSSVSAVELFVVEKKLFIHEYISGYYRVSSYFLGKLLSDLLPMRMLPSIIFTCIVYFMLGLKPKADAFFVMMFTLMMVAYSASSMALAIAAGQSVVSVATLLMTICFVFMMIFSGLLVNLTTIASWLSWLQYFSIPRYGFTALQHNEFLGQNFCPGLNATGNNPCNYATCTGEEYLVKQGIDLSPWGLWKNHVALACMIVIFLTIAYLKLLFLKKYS

CYP1A2 = test: CYP induction in cryopreserved human hepatocytes; details: for mRNA Mean Fold Change ± SD CYP1A2: 48 h, n = 3 donors, vs DMSO vehicle
CYP3A4 [2] = molecular target: T2, CYP3A4 (Homo sapiens, UniProt P08684); test: Time-dependent CYP inhibition in pooled human liver microsomes; type: in vitro ADME
T2 sequence (P08684 whole entry): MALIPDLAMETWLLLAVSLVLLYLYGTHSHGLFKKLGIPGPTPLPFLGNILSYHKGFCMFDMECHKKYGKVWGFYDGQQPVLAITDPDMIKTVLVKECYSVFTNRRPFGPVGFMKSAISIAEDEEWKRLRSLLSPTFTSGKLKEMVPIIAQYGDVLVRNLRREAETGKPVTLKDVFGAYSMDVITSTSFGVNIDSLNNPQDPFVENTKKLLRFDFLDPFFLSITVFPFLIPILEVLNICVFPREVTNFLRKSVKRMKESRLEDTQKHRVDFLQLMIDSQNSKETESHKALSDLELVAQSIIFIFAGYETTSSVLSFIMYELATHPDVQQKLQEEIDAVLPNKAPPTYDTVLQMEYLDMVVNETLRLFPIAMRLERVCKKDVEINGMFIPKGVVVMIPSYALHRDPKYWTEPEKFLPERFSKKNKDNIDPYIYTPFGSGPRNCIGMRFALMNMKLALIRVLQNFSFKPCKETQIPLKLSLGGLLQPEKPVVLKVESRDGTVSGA

CYP2C9 = CYP2C9 (Homo sapiens, UniProt P11712); test: as above; type: in vitro ADME
Chain of CYP2C9 (P11712 whole entry): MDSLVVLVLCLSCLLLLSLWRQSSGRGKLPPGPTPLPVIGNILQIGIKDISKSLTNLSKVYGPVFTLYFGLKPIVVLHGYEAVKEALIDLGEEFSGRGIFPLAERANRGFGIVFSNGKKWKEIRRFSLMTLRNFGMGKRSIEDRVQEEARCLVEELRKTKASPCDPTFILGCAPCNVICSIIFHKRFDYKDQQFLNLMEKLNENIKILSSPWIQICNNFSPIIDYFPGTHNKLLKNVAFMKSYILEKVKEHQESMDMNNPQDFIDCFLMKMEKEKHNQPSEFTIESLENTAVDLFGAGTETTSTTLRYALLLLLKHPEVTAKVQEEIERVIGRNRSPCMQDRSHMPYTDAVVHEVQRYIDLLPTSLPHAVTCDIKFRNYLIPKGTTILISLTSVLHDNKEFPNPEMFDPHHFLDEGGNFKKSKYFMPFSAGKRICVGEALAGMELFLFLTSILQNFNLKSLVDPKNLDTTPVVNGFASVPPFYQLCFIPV

BCRP [3] = molecular target: T1, BCRP; test: Inhibition of BCRP-mediated methotrexate uptake in Sf9 membrane vesicles; type: in vitro ADME; design: purchased Thermo Fisher Scientific; host or cells: Sf9
OCT2 = molecular target: T3, OCT2 (Homo sapiens, UniProt O15244); test: Inhibition of transporter-mediated probe uptake in CHO-K1-OCT2 cells; type: in vitro ADME
T3 construct: expressed in transfected cells; host or cells: CHO-K1
T3 sequence (O15244 1-555): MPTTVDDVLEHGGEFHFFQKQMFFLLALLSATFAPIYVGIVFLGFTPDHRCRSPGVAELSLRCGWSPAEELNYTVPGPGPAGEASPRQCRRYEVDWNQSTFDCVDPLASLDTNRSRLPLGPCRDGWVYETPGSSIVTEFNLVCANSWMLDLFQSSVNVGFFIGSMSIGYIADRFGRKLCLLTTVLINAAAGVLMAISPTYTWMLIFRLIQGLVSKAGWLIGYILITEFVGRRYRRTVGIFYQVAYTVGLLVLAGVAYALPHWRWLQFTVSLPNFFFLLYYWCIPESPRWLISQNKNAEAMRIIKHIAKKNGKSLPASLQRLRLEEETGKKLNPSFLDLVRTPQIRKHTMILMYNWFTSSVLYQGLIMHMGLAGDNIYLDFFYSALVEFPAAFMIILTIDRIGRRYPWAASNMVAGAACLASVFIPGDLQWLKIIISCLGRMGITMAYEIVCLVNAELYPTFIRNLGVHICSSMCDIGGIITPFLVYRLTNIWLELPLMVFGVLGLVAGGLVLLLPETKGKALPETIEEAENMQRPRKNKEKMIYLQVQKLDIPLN

[4] = Plasma protein binding by equilibrium dialysis, mouse plasma; type: in vitro ADME; details: pH 7.4
[5] = Metabolism in cryopreserved human hepatocyte incubations; type: in vitro ADME
CYP3A4 [6] = molecular target: T2, CYP3A4; test: Reversible CYP inhibition in pooled human liver microsomes; type: in vitro ADME
OAT3 = molecular target: T4, OAT3 (Homo sapiens, UniProt Q8TCC7); test: Inhibition of transporter-mediated probe uptake in MDCKII-OAT3 cells; type: in vitro ADME
T4 construct: expressed in transfected cells; host or cells: MDCKII
T4 sequence (Q8TCC7 1-542): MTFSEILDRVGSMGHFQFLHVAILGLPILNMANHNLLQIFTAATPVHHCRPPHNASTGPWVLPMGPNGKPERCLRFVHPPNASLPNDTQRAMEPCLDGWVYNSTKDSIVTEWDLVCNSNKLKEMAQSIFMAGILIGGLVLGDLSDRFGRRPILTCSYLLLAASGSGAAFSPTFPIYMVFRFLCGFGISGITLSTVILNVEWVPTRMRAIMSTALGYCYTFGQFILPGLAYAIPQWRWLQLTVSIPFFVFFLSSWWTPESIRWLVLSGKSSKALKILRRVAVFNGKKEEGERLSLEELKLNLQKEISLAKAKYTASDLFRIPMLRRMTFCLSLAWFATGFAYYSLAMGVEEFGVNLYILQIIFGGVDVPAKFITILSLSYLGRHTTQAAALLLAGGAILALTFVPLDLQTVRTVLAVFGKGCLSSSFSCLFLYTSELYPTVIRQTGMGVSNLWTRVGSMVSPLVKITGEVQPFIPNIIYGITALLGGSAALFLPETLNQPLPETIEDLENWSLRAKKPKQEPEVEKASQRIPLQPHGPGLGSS

C#C[C@]1(CO)O[C@@H](n2cnc3c(N)nc(F)nc32)C[C@@H]1O [Islatravir, 4′-Ethynyl-2-fluoro-2′-deoxyadenosine]
BCRP substrate assessment (BCRP [1]; bi-directional transport assay): substrate of BCRP
Papp at 3 h, 2 µM (BCRP [1]; dog, MDCK, MDCKII cells, read-out: apparent permeability coefficient (Papp)): 1.6 to 2.2 ×10⁻⁶ cm/s
efflux ratio at 2 µM (BCRP [1]; dog, MDCK, islatravir 2 µM, untransfected control cells, mean ± SEM, read-out: mean Papp(B to A)/Papp(A to B) efflux ratio): 0.8 ± 0.2
efflux ratio at 3 h, 2 µM (BCRP [1]; islatravir 2 µM, BCRP-transfected monolayers with Ko143 (5 µM), mean ± SEM, read-out: mean Papp(B to A)/Papp(A to B) efflux ratio): 0.9 ± 0.1
efflux ratio at 3 h, 2 µM (BCRP [1]; islatravir 2 µM, BCRP-transfected monolayers, mean ± SEM, read-out: mean Papp(B to A)/Papp(A to B) efflux ratio): 4.3 ± 1.1
mRNA Mean Fold Change ± SD CYP1A2 (CYP1A2; 0.1 µM): 0.4 ± 0.2
mRNA Mean Fold Change ± SD CYP1A2 (CYP1A2; 0.5 µM): 0.4 ± 0.2
mRNA Mean Fold Change ± SD CYP1A2 (CYP1A2; 1 µM): 0.5 ± 0.3
mRNA Mean Fold Change ± SD CYP1A2 (CYP1A2; 5 µM): 0.4 ± 0.3
mRNA Mean Fold Change ± SD CYP1A2 (CYP1A2; 10 µM): 0.5 ± 0.4
mRNA Mean Fold Change ± SD CYP1A2 (CYP1A2; 20 µM): 0.2 ± 0.2
mRNA response relative to positive control (CYP1A2; CYP1A2, each tested concentration 0.1-20 µM): less than 20%
enzyme activity, fold of solvent control (CYP1A2; CYP1A2 phenacetin O-deethylation, all islatravir concentrations): ≤ 1.1 fold
time-dependent inhibition (CYP3A4 [2]; CYP3A4, pre-incubation of 10 and 50 µM for up to 30 min): no time-dependent inhibition
DDI Potential (CYP3A4 [2]; CYP3A4 time dependent inhibition): Low risk ^h
IC50 (CYP3A4 [2]; time dependent, CYP3A4, read-out: Islatravir IC50): > 50 µM
time-dependent inhibition (CYP2C9; CYP2C9, pre-incubation of 10 and 50 µM for up to 30 min): no time-dependent inhibition
DDI Potential (CYP2C9; CYP2C9 time dependent inhibition): Low risk ^h
IC50 (CYP2C9; time dependent, CYP2C9, read-out: Islatravir IC50): > 50 µM
DDI Potential (BCRP [3]; BCRP inhibition, FDA, EMA, PMDA guidance): Low risk
IC50 (BCRP [3]; BCRP-mediated methotrexate uptake, read-out: Islatravir IC50): > 100 µM
Maximum Unbound Plasma Concentration (Imax,u) to IC50 Ratio (BCRP [3]; BCRP, 60 mg, Cmax 1.01 µM, fu,p 0.96): <0.010 µM
Intestinal Concentration (Igut) to IC50 Ratio (BCRP [3]; BCRP, Igut = 60 mg/250 mL = 818 µM): <8.2 µM
inhibition at 5 min, 100 µM (BCRP [3]; human, BCRP-containing Sf9 membrane vesicles, probe [3H]methotrexate, 100 µM islatravir, membrane vesicle assay): 35%
inhibition at 100 µM (OCT2; CHO-K1-OCT2 cells, probe metformin, 100 µM islatravir): 15%
IC50 (OCT2; OCT2-mediated metformin uptake, read-out: Islatravir IC50): > 100 µM
Maximum Unbound Plasma Concentration (Imax,u) to IC50 Ratio (OCT2; OCT2, 60 mg, Cmax 1.01 µM, fu,p 0.96): <0.010 µM
DDI Potential (OCT2; OCT2 inhibition, FDA, EMA, PMDA guidance): Low risk
fraction unbound at 24 h, 0.1 µM [4]: > 0.84
metabolites observed [5]: no detectable metabolites
DDI Potential (CYP3A4 [6]; CYP3A4 reversible inhibition, FDA, EMA, PMDA guidance): Low risk
Maximum Unbound Plasma Concentration (Imax,u) to Ki,u Ratio (CYP3A4 [6]; CYP3A4 reversible, 60 mg, Cmax 1.01 µM, fu,p 0.96, Ki,u = IC50/2): <0.010 µM
Intestinal Concentration (Igut) to Ki,u Ratio (CYP3A4 [6]; CYP3A4 reversible, Igut = 60 mg/250 mL = 818 µM): <8.2 µM
inhibition at 100 µM (OAT3; MDCKII-OAT3 cells, probe estrone sulfate, 100 µM islatravir): 31%
IC50 (OAT3; OAT3-mediated estrone sulfate uptake, read-out: Islatravir IC50): > 100 µM
Maximum Unbound Plasma Concentration (Imax,u) to IC50 Ratio (OAT3; OAT3, 60 mg, Cmax 1.01 µM, fu,p 0.96): <0.010 µM
DDI Potential (OAT3; OAT3 inhibition, FDA, EMA, PMDA guidance): Low risk
